Experimental data from publication PMC11031313 (Cell chemical biology, 2024).

How the values were obtained:
[1] = molecular target: Nef (NL4-3 variant) and CRBN thalidomide-binding domain (UniProt P03406+Q96SW2, A33V/T15A/T51N/V11I); assay: PROTAC-mediated ternary complex formation in vitro; details: 25 μM of each protein, 5-, 10- or 20-fold molar excess of PROTAC
[2] = molecular target: HIV-1 Nef (SF2 variant) (Human immunodeficiency virus type 1 group M subtype B, UniProt P03407); type: cell-based; details: 293T cells, PROTAC 10 μM, 24 h
[3] = molecular target: Nef-eGFP fusion protein (UniProt P03406+Q96SW2); assay: Nef-eGFP protein loss in CEM/Nef-eGFP cells by flow cytometry; type: cell-based, HIV-1; details: 3 μM, 24 h
Sequence of Nef-eGFP fusion protein (Q16531 whole entry, other chains not shown, the tested form may be a part): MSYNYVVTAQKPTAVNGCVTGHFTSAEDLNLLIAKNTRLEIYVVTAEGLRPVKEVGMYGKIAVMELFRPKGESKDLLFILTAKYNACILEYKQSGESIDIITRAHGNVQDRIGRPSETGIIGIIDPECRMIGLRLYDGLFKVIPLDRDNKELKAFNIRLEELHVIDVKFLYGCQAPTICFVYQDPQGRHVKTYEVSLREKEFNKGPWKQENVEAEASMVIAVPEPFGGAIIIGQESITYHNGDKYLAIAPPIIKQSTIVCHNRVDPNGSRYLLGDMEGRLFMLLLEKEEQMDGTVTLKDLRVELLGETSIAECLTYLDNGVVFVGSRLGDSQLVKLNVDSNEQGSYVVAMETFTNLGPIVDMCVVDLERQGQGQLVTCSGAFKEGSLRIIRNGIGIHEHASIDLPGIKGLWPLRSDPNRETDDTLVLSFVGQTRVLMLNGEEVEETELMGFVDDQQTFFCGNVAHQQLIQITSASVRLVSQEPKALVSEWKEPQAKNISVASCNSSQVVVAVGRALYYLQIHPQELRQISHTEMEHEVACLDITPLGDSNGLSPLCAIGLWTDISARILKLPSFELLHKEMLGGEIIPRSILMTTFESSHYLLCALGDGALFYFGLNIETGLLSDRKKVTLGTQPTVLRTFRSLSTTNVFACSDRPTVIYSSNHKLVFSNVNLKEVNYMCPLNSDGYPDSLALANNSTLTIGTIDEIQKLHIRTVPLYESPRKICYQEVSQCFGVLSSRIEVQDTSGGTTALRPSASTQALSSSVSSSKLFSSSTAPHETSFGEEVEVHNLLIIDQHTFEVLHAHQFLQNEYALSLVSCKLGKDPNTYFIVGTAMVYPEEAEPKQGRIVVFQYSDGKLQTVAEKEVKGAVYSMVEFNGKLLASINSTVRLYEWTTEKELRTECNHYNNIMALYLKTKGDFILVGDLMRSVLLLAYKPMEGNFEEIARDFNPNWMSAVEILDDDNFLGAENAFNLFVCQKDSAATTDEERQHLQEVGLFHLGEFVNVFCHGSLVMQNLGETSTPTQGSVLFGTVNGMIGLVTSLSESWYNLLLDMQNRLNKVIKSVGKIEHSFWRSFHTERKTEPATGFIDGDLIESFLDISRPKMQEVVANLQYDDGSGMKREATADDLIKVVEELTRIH
Sequence of Nef-eGFP fusion protein (Q96SW2 whole entry, other chains not shown, the tested form may be a part): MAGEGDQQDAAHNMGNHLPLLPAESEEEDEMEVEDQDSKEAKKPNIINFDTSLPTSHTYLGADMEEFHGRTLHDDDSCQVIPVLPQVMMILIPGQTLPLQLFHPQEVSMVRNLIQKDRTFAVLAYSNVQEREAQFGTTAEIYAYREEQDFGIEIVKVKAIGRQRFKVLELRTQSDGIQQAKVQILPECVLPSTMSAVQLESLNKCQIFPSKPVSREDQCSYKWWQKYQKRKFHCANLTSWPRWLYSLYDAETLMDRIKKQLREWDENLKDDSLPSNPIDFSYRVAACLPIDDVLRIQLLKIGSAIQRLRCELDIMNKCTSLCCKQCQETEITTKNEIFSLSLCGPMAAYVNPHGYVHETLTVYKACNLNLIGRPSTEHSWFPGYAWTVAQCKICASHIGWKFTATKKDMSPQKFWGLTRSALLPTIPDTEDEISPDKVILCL

[4] = tested on: Nef-mediated CD4 downregulation; assay: Rescue of cell-surface CD4 in Dox-induced CEM/Nef-eGFP T cells; type: cell-based, human; details: 3 μM, 24 h
[5] = tested on: Nef-mediated MHC-I downregulation; assay: Rescue of cell-surface MHC-I in Dox-induced CEM/Nef-eGFP T cells; type: cell-based, human; details: 3 μM, 24 h
[6] = molecular target: thalidomide-binding domain of CRBN (Homo sapiens, UniProt Q96SW2); assay: SPR binding to CRBN thalidomide-binding domain; details: 90 s association, 180 s dissociation
Sequence of thalidomide-binding domain of CRBN (Q96SW2 317-425): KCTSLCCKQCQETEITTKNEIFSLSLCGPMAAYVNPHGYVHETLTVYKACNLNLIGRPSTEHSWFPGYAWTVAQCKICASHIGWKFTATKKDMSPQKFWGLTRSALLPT

[7] = molecular target: HIV-1 Nef (NL4-3 variant) (Human immunodeficiency virus type 1, UniProt Q90VU7); assay: SPR binding to HIV-1 Nef; details: for binding kinetics with Nef (in words): SPR, 90 s association, 180 s dissociation
[8] = molecular target: M-group HIV-1 Nef variants; assay: SPR binding to M-group HIV-1 Nef variants; details: HIV-1 Nef proteins
[9] = molecular target: SIV Nef mac239 (Simian immunodeficiency virus, UniProt Q5QGG3); assay: SPR binding to SIV Nef mac239
[10] = tested on: TZM-bl cells; assay: Viability of uninfected TZM-bl cells; type: cell-based, human
[11] = tested on: HIV-1NL4-3; assay: HIV-1 infectivity assay in TZM-bl reporter cells; type: cell-based; details: Human immunodeficiency virus 1, TZM-bl, 48 h, read-out: IC50, HIV-1 infectivity
[12] = molecular target: IKZF1 (Ikaros) (Homo sapiens, UniProt Q13422); assay: IKZF1 protein level in CEM/Nef-eGFP T cells; type: cell-based; details: CEM/Nef-eGFP cells after Dox induction
Sequence of IKZF1 (Ikaros) (Q13422 whole entry): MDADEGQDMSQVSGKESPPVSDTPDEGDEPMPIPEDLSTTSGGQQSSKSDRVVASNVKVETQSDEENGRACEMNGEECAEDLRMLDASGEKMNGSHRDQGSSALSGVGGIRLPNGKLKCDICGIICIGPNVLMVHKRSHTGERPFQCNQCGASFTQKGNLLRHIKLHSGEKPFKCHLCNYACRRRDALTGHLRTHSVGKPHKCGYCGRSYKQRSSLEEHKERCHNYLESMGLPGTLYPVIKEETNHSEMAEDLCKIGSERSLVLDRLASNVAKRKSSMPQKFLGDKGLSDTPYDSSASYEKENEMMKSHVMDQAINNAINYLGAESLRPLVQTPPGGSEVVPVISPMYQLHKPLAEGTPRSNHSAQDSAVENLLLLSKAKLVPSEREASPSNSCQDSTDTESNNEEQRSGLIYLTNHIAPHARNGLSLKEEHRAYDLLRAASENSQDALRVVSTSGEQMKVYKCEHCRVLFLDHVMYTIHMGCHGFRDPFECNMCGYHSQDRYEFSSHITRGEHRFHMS

[13] = tested on: HIV-1NL4-3; assay: HIV-1 replication in donor PBMCs; type: cell-based; details: 1 μM, 4 days
[14] = tested on: uninfected PBMCs; assay: Viability of uninfected PBMCs; type: cell-based, human; details: 1 μM, 4 days

Sequence of Nef (NL4-3 variant) and CRBN thalidomide-binding domain (Q96SW2 317-425, other chains not shown): as the sequence (Q96SW2 317-425) above

| SMILES | ternary complex formation (in words) [1] | induction of Nef ubiquitylation (in words) [2] | Nef-eGFP protein loss / Nef degradation (in words) [3] | cell-surface CD4 rescue (in words) [4] | cell-surface MHC-I rescue (in words) [5] | binding kinetics with Nef (in words) [7] | Kd [8] [nM] | Kd [9] [nM] | also measured |
| --- | --- | --- | --- | --- | --- | --- | --- | --- | --- |
| CN(CCNC(=O)COCCOc1ccc(CCc2c(-c3ccc(C(F)(F)F)cc3)nn(-c3nc4cc(Cl)ccc4[nH]3)c2O)cc1)c1cccc2c1C(=O)N(C1CCC(=O)NC1=O)C2=O (centres unmarked) [FC-13887, 2-[2-(4-{2-[1-(5-chloro-1H-1,3-benzodiazol-2-yl)-5-hydroxy-3-[4-(trifluoromethyl)phenyl]-1H-pyrazol-4-yl]ethyl}phenoxy)ethoxy]-N-(2-{[2-(2,6-dioxopiperidin-3-yl)-1,3-dioxo-2,3-dihydro-1H-isoindol-4-yl](methyl)amino}ethyl)acetamide] | induce ternary complexes of Nef with CRBN | active |  |  |  |  |  |  | z-score of normalized BRET ratio (Nef ubiquitylation) [2]: 1.3 |
| O=C(COCCOc1ccc(CCc2c(-c3ccc(C(F)(F)F)cc3)nn(-c3nc4cc(Cl)ccc4[nH]3)c2O)cc1)NCCNc1cccc2c1C(=O)N(C1CCC(=O)NC1=O)C2=O (centres unmarked) [FC-13182, 2-[2-(4-{2-[1-(5-chloro-1H-1,3-benzodiazol-2-yl)-5-hydroxy-3-[4-(trifluoromethyl)phenyl]-1H-pyrazol-4-yl]ethyl}phenoxy)ethoxy]-N-(2-{[2-(2,6-dioxopiperidin-3-yl)-1,3-dioxo-2,3-dihydro-1H-isoindol-4-yl]amino}ethyl)acetamide] |  |  | effectively induced Nef degradation | restored CD4 and MHC-I expression | restored CD4 and MHC-I expression |  |  |  |  |
| O=C(COc1cccc2c1CN(C1CCC(=O)NC1=O)C2=O)NCCOCCOCCOCc1ccc(-c2nn(-c3nc4cc(Cl)ccc4[nH]3)c(O)c2CCc2ccc(F)cc2)cc1 (centres unmarked) [FC-12988, N-(2-{2-[2-({4-[1-(5-chloro-1H-1,3-benzodiazol-2-yl)-4-[2-(4-fluorophenyl)ethyl]-5-hydroxy-1H-pyrazol-3-yl]phenyl}methoxy)ethoxy]ethoxy}ethyl)-2-{[2-(2,6-dioxopiperidin-3-yl)-1-oxo-2,3-dihydro-1H-isoindol-4-yl]oxy}acetamide] | induce ternary complexes of Nef with CRBN |  | effectively induced Nef degradation | restored CD4 and MHC-I expression | restored CD4 and MHC-I expression | more rapid association and release compared to FC-13182 |  |  | binding kinetics with CRBN thalidomide-binding domain (in words) [6]: associated more slowly than FC-13182 and showed a comparatively slow dissociation phase |
| O=C1CCC(N2Cc3c(OCC(=O)N4CCC(c5nn(-c6nc7cc(Cl)ccc7[nH]6)c(O)c5CCc5ccc(F)cc5)CC4)cccc3C2=O)C(=O)N1 (centres unmarked) [FC-14367, 3-[4-(2-{4-[1-(5-chloro-1H-1,3-benzodiazol-2-yl)-4-[2-(4-fluorophenyl)ethyl]-5-hydroxy-1H-pyrazol-3-yl]piperidin-1-yl}-2-oxoethoxy)-1-oxo-2,3-dihydro-1H-isoindol-2-yl]piperidine-2,6-dione] |  |  |  |  |  |  | < 1000 | < 1000 |  |
| O=C(COc1ccc(CCc2c(-c3ccc(C(F)(F)F)cc3)nn(-c3nc4cc(Cl)ccc4[nH]3)c2O)cc1)NCCNc1cccc2c1C(=O)N(C1CCC(=O)NC1=O)C2=O (centres unmarked) [FC-14369, 2-(4-{2-[1-(5-chloro-1H-1,3-benzodiazol-2-yl)-5-hydroxy-3-[4-(trifluoromethyl)phenyl]-1H-pyrazol-4-yl]ethyl}phenoxy)-N-(2-{[2-(2,6-dioxopiperidin-3-yl)-1,3-dioxo-2,3-dihydro-1H-isoindol-4-yl]amino}ethyl)acetamide] |  | active | parallel loss in Nef expression |  |  | delayed dissociation | < 1000 | < 1000 | cytotoxicity (in words) [10]: without cytotoxicity; Kd [7]: 6.5 nM; IC50 [11]: ~250 nM; effect on the protein level of IKZF1 [12]: reduced the expression of IKZF1 |
| O=C(COCCOCCOCCCc1ccc(-c2nn(-c3nc4cc(Cl)ccc4[nH]3)c(O)c2CCc2ccc(F)cc2)cc1)NCCNc1cccc2c1C(=O)N(C1CCC(=O)NC1=O)C2=O (centres unmarked) [FC-13818, 2-{2-[2-(3-{4-[1-(5-chloro-1H-1,3-benzodiazol-2-yl)-4-[2-(4-fluorophenyl)ethyl]-5-hydroxy-1H-pyrazol-3-yl]phenyl}propoxy)ethoxy]ethoxy}-N-(2-{[2-(2,6-dioxopiperidin-3-yl)-1,3-dioxo-2,3-dihydro-1H-isoindol-4-yl]amino}ethyl)acetamide] | induce ternary complexes of Nef with CRBN |  |  |  |  |  |  |  | HIV-1 replication (in words) [13]: reduced HIV-1 replication below the level of the ΔNef mutant; reduction of viability [14]: 20% |
